From ChEMBL document CHEMBL4411307, “N,N'-diaryl-bishydrazones in a biphenyl platform: Broad spectrum antifungal agents” (Eur J Med Chem, 2019)
Converted amounts (≈) assume the structure as drawn. The source made the active and inactive calls. The rule behind the calls is not given here.

Key:
[1] = tested on: Aspergillus flavus; test: Antifungal activity against Aspergillus flavus ATCC MYA-3631 measured after 48 hrs by CLSI M38-A2 protocol based method; type: functional; conditions: ATCC MYA-3631, 48 h
[2] = tested on: Aspergillus terreus; test: Antifungal activity against Aspergillus terreus ATCC MYA-3633 measured after 48 hrs by CLSI M38-A2 protocol based method; type: functional; conditions: ATCC MYA-3633, 48 h
[3] = Hemolytic activity in mouse RBC at […] after 1 hr relative to control; type: ADME, cell-based, Erythrocyte; conditions: red blood cells (erythrocytes), read-out: Activity; also: tested at 0.48 µg/mL
[4] = tested on: Candida parapsilosis; test: Antifungal activity against Candida parapsilosis ATCC 22019 measured after 48 hrs by CLSI M27-A3 protocol based method; type: functional; conditions: Lodderomyces parapsilosis, ATCC 22019, 48 h
[5] = tested on: Candida albicans; test: Antifungal activity against fluconazole/ITC-resistant Candida albicans ATCC 64124 measured after 48 hrs by CLSI M27-A3 protocol based method; type: functional; conditions: ATCC 64124, 48 h
[6] = tested on: Aspergillus nidulans; test: Antifungal activity against Aspergillus nidulans ATCC 38163 measured after 48 hrs by CLSI M38-A2 protocol based method; type: functional; conditions: ATCC 38163, 48 h
[7] = Hemolytic activity in mouse RBC at 3.9 ug/ml after 1 hr relative to control; type: ADME, cell-based, Erythrocyte; conditions: red blood cells (erythrocytes), read-out: Activity
[8] = tested on: Candida albicans; test: Antifungal activity against fluconazole/ITC-resistant Candida albicans ATCC 10231 measured after 48 hrs by CLSI M27-A3 protocol based method; type: functional; conditions: ATCC 10231, 48 h
[9] = tested on: Candida albicans; test: Antibiofilm activity against fluconazole/ITC-resistant Candida albicans ATCC 64124 assessed as reduction in sessile growth after 24 hrs by XTT assay; type: functional; conditions: ATCC 64124, 24 h
[10] = tested on: Candida albicans; test: Fungicidal activity against fluconazole/ITC-resistant Candida albicans ATCC 10231 assessed as reduction in fungal growth at 0.5 to 2 times MIC incubated for 24 hrs followed by replating on PDA plates measured after 48 hrs Time-Kill assay; type: functional, organism-based
[11] = Hemolytic activity in mouse RBC at 1.95 ug/ml after 1 hr relative to control; type: ADME, cell-based, Erythrocyte; conditions: red blood cells (erythrocytes), read-out: Activity
[12] = tested on: Candida albicans; test: Antibiofilm activity against fluconazole/ITC-resistant Candida albicans ATCC 10231 assessed as reduction in sessile growth after 24 hrs by XTT assay; type: functional; conditions: ATCC 10231, 24 h
[13] = tested on: Candida albicans; test: Antifungal activity against fluconazole/ITC-resistant Candida albicans ATCC 90819 measured after 48 hrs by CLSI M27-A3 protocol based method; type: functional; conditions: ATCC 90819, 48 h
[14] = Hemolytic activity in mouse RBC at 7.8 ug/ml after 1 hr relative to control; type: ADME, cell-based, Erythrocyte; conditions: red blood cells (erythrocytes), read-out: Activity
[15] = tested on: Candida albicans; test: Antifungal activity against fluconazole/ITC-resistant Candida albicans ATCC MYA-1237 measured after 48 hrs by CLSI M27-A3 protocol based method; type: functional; conditions: ATCC MYA-1237, 48 h
[16] = tested on: Candida albicans; test: Antifungal activity against fluconazole/ITC-susceptible Candida albicans ATCC MYA-2310 measured after 48 hrs by CLSI M27-A3 protocol based method; type: functional; conditions: ATCC MYA-2310, 48 h
[17] = Hemolytic activity in mouse RBC at […] ug/ml after 1 hr relative to control; type: ADME, cell-based, Erythrocyte; conditions: red blood cells (erythrocytes), read-out: Activity
[18] = Hemolytic activity in mouse RBC at 31.3 ug/ml after 1 hr relative to control; type: ADME, cell-based, Erythrocyte; conditions: red blood cells (erythrocytes), read-out: Activity

`C[C@@H](c1ncncc1F)[C@](O)(Cn1cncn1)c1ccc(F)cc1F` [VORICONAZOLE] showed an MIC [1] of over 31.3 µg/mL, an MIC [2] of over 31.3 µg/mL and a hemolysis at 1 h, […] [3] of 8.7%. For the same molecule, the MIC [4] was 1.95 µg/mL (≈ 5.58 µM), the MIC [5] was 0.24 µg/mL (≈ 0.687 µM) and the MIC [6] was over 31.3 µg/mL. For the same molecule, the hemolysis at 1 h, 3.9 ug/ml [7] was 7.5%, the MIC [8] was 0.975 µg/mL (≈ 2.79 µM) and the MIC50 [9] was 16 µg/mL (≈ 45.8 µM). The MIC90 [9] was over 32 µg/mL, the Activity [10] was “Active” and the hemolysis at 1 h, 1.95 ug/ml [11] was 6.3%. The MIC50 [12] was 16 µg/mL (≈ 45.8 µM), the MIC90 [12] was over 32 µg/mL and the MIC [13] was 0.12 µg/mL (≈ 0.344 µM). The hemolysis at 1 h, 7.8 ug/ml [14] was 11.4%, the MIC [15] was 0.24 µg/mL (≈ 0.687 µM) and the MIC [16] was 0.12 µg/mL (≈ 0.344 µM). The hemolysis at 1 h, 15.6 ug/ml ([17]; at 15.6 µg/mL) was 2.8%, the hemolysis at 1 h, 0.975 ug/ml [17] was 10.3% and the hemolysis at 1 h, 31.3 ug/ml [18] was 83%.
